From ChEMBL document CHEMBL1147095, “Chromosome-encoded narrow-spectrum Ambler class A beta-lactamase GIL-1 from Citrobacter gillenii” (Antimicrob Agents Chemother, 2007)
In brackets after ≈: the same amount, converted by molar mass.

Columns and labels:
Citrobacter gillenii = test: Antimicrobial activity against Citrobacter gillenii CIP 106783 after 18 hrs by […]; format: functional; conditions: CIP 106783, 18 h
[1] = target: T1, Gil1 (Citrobacter gillenii) (UniProt A4KCT8); test: Ratio of kcat to Km of Citrobacter gillenii CIP 106783 Beta-lactamase GIL1 expressed in Escherichia coli DH10B relative to benzyl-penicillin; parameters: unit not given here
T1 sequence (whole entry): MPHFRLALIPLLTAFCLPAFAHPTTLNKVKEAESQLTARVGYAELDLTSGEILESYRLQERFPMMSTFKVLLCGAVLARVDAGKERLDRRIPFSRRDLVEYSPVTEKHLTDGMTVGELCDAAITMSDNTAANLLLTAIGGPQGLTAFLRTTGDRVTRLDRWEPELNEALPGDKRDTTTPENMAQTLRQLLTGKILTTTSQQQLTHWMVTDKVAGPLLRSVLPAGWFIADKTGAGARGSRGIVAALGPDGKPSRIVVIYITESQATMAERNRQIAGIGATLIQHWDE

Escherichia coli [2] = test: Antimicrobial activity against Escherichia coli DH10B expressing GIL1 after 18 hrs by […]; format: functional
Escherichia coli [3] = test: Antimicrobial activity against Escherichia coli DH10B after 18 hrs by […]; format: functional
[4] = substrate: CO/N=C(\C(=O)N[C@@H]1C(=O)N2C(C(=O)[O-])=C(C[n+]3cccc4c3CCC4)CS[C@H]12)c1csc(N)n1; test: (§1) Activity of Citrobacter gillenii CIP 106783 Beta-lactamase GIL1 expressed in Escherichia coli DH10B
[5] = substrate: CCN1CCN(C(=O)N[C@@H](C(=O)N[C@@H]2C(=O)N3[C@@H]2SC(C)(C)[C@@H]3C(=O)O)c2ccccc2)C(=O)C1=O; test: as §1
[6] = substrate: CO/N=C(\C(=O)N[C@@H]1C(=O)N2C(C(=O)O)=C(COC(N)=O)CS[C@H]12)c1ccco1; test: as §1
[7] = substrate: C[C@H]1[C@H](NC(=O)/C(=N\OC(C)(C)C(=O)O)c2csc(N)n2)C(=O)N1S(=O)(=O)O; test: as §1
[8] = substrate: CO/N=C(\C(=O)N[C@@H]1C(=O)N2C(C(=O)O)=C(COC(C)=O)CS[C@H]12)c1csc(N)n1; test: as §1
[9] = substrate: CC(=O)OCC1=C(C(=O)O)N2C(=O)[C@@H](NC(=O)Cc3cccs3)[C@H]2SC1; test: as §1
[10] = substrate: CC1(C)S[C@@H]2[C@H](NC(=O)[C@H](N)c3ccc(O)cc3)C(=O)N2[C@H]1C(=O)O; test: as §1
[11] = substrate: C[C@@H](O)[C@H]1C(=O)N2C(C(=O)O)=C(SCCNC=N)C[C@H]12; test: as §1
[12] = substrate: CC1(C)S[C@@H]2[C@H](NC(=O)[C@H](C(=O)O)c3ccsc3)C(=O)N2[C@H]1C(=O)O; test: as §1
[13] = substrate: CC(C)(O/N=C(\C(=O)N[C@@H]1C(=O)N2C(C(=O)[O-])=C(C[n+]3ccccc3)CS[C@H]12)c1csc(N)n1)C(=O)O; test: as §1
[14] = substrate: CC1(C)S[C@@H]2[C@H](NC(=O)Cc3ccccc3)C(=O)N2[C@H]1C(=O)O; test: as §1
[15] = substrate: CO/N=C(\C(=O)N[C@@H]1C(=O)N2C(C(=O)[O-])=C(C[N+]3(C)CCCC3)CS[C@H]12)c1csc(N)n1; test: as §1

CO/N=C(\C(=O)N[C@@H]1C(=O)N2C(C(=O)[O-])=C(C[N+]3(C)CCCC3)CS[C@H]12)c1csc(N)n1
MIC (Citrobacter gillenii): 0.06 µg/mL (≈ 0.125 µM) | Ratio [1]: 0.5 | MIC (Escherichia coli [2]): 0.12 µg/mL (≈ 0.25 µM)

CC1(C)S[C@@H]2[C@H](NC(=O)Cc3ccccc3)C(=O)N2[C@H]1C(=O)O
Ratio [1]: 100

CC1(C)S[C@@H]2[C@H](NC(=O)[C@H](N)c3ccc(O)cc3)C(=O)N2[C@H]1C(=O)O [AMOXICILLIN]
MIC (Citrobacter gillenii): 16 µg/mL (≈ 43.8 µM) | MIC (Escherichia coli [3]): 2 µg/mL (≈ 5.47 µM) | Ratio [1]: 81 | MIC (Escherichia coli [2]): > 512 µg/mL

C[C@H]1[C@H](NC(=O)/C(=N\OC(C)(C)C(=O)O)c2csc(N)n2)C(=O)N1S(=O)(=O)O [AZTREONAM]
MIC (Citrobacter gillenii): 0.06 µg/mL (≈ 0.138 µM) | Ratio [1]: 0.02 | MIC (Escherichia coli [2]): 0.12 µg/mL (≈ 0.276 µM)

CO/N=C(\C(=O)N[C@@H]1C(=O)N2C(C(=O)O)=C(COC(C)=O)CS[C@H]12)c1csc(N)n1 [CEFOTAXIME]
MIC (Citrobacter gillenii): 0.06 µg/mL (≈ 0.132 µM) | MIC (Escherichia coli [3]): 0.06 µg/mL (≈ 0.132 µM) | Ratio [1]: 0.2 | MIC (Escherichia coli [2]): 1 µg/mL (≈ 2.2 µM)

CO[C@@]1(NC(=O)Cc2cccs2)C(=O)N2C(C(=O)O)=C(COC(N)=O)CS[C@@H]21 [CEFOXITIN]
MIC (Citrobacter gillenii): 1 µg/mL (≈ 2.34 µM) | MIC (Escherichia coli [3]): 2 µg/mL (≈ 4.68 µM) | MIC (Escherichia coli [2]): 2 µg/mL (≈ 4.68 µM)

CO/N=C(\C(=O)N[C@@H]1C(=O)N2C(C(=O)[O-])=C(C[n+]3cccc4c3CCC4)CS[C@H]12)c1csc(N)n1 [CEFPIROME]
MIC (Citrobacter gillenii): 0.06 µg/mL (≈ 0.117 µM) | MIC (Escherichia coli [3]): 0.06 µg/mL (≈ 0.117 µM) | Ratio [1]: 1.9 | MIC (Escherichia coli [2]): 0.25 µg/mL (≈ 0.486 µM)

CC(C)(O/N=C(\C(=O)N[C@@H]1C(=O)N2C(C(=O)[O-])=C(C[n+]3ccccc3)CS[C@H]12)c1csc(N)n1)C(=O)O [CEFTAZIDIME]
MIC (Citrobacter gillenii): 0.06 µg/mL (≈ 0.11 µM) | MIC (Escherichia coli [3]): 0.06 µg/mL (≈ 0.11 µM) | Ratio [1]: 0.01 | MIC (Escherichia coli [2]): 0.5 µg/mL (≈ 0.915 µM)

CO/N=C(\C(=O)N[C@@H]1C(=O)N2C(C(=O)O)=C(CSc3nc(=O)c(O)nn3C)CS[C@H]12)c1csc(N)n1 [CEFTRIAXONE]
MIC (Citrobacter gillenii): 0.06 µg/mL (≈ 0.108 µM) | MIC (Escherichia coli [3]): 0.06 µg/mL (≈ 0.108 µM) | MIC (Escherichia coli [2]): 0.06 µg/mL (≈ 0.108 µM)

CO/N=C(\C(=O)N[C@@H]1C(=O)N2C(C(=O)O)=C(COC(N)=O)CS[C@H]12)c1ccco1 [CEFUROXIME]
MIC (Citrobacter gillenii): 2 µg/mL (≈ 4.71 µM) | MIC (Escherichia coli [3]): 2 µg/mL (≈ 4.71 µM) | Ratio [1]: 0.4 | MIC (Escherichia coli [2]): 8 µg/mL (≈ 18.9 µM)

CC(=O)OCC1=C(C(=O)O)N2C(=O)[C@@H](NC(=O)Cc3cccs3)[C@H]2SC1 [CEPHALOTHIN]
MIC (Citrobacter gillenii): 2 µg/mL (≈ 5.04 µM) | MIC (Escherichia coli [3]): 2 µg/mL (≈ 5.04 µM) | Ratio [1]: 11 | MIC (Escherichia coli [2]): 8 µg/mL (≈ 20.2 µM)

C[C@@H](O)[C@H]1C(=O)N2C(C(=O)O)=C(SCCNC=N)C[C@H]12 [IMIPENEM ANHYDROUS]
MIC (Citrobacter gillenii): 0.06 µg/mL (≈ 0.2 µM) | Ratio [1]: < 0.01

CO[C@@]1(NC(=O)C(C(=O)O)c2ccc(O)cc2)C(=O)N2C(C(=O)O)=C(CSc3nnnn3C)CO[C@@H]21 (stereo partly specified) [MOXALACTAM]
MIC (Citrobacter gillenii): 0.12 µg/mL (≈ 0.231 µM) | MIC (Escherichia coli [3]): 0.12 µg/mL (≈ 0.231 µM) | MIC (Escherichia coli [2]): 0.25 µg/mL (≈ 0.48 µM)

CCN1CCN(C(=O)N[C@@H](C(=O)N[C@@H]2C(=O)N3[C@@H]2SC(C)(C)[C@@H]3C(=O)O)c2ccccc2)C(=O)C1=O [PIPERACILLIN]
MIC (Citrobacter gillenii): 2 µg/mL (≈ 3.86 µM) | MIC (Escherichia coli [3]): 1 µg/mL (≈ 1.93 µM) | Ratio [1]: 61 | MIC (Escherichia coli [2]): 32 µg/mL (≈ 61.8 µM)

CC1(C)S[C@@H]2[C@H](NC(=O)[C@H](C(=O)O)c3ccsc3)C(=O)N2[C@H]1C(=O)O [TICARCILLIN]
MIC (Citrobacter gillenii): 64 µg/mL (≈ 166 µM) | MIC (Escherichia coli [3]): 1 µg/mL (≈ 2.6 µM) | Ratio [1]: 180 | MIC (Escherichia coli [2]): > 512 µg/mL

B1: Gil1 (Citrobacter gillenii), A4KCT8 (protein)
chain: T1 sequence (whole entry)
Km [4]: 304 µM | kcat [4]: 32 s⁻¹ | kcat/Km [4]: 106000 M⁻¹ s⁻¹ | Km [5]: 90 µM | kcat [5]: 306 s⁻¹ | kcat/Km [5]: 3.4e+06 M⁻¹ s⁻¹ | Km [6]: 88 µM | kcat [6]: 2 s⁻¹ | kcat/Km [6]: 23000 M⁻¹ s⁻¹ | Km [7]: 938 µM | kcat [7]: 0.8 s⁻¹ | kcat/Km [7]: 1000 M⁻¹ s⁻¹ | Km [8]: 714 µM | kcat [8]: 7 s⁻¹ | kcat/Km [8]: 10000 M⁻¹ s⁻¹ | Km [9]: 62 µM | kcat [9]: 37 s⁻¹ | kcat/Km [9]: 598000 M⁻¹ s⁻¹ | Km [10]: 84 µM | kcat [10]: 381 s⁻¹ | kcat/Km [10]: 4.54e+06 M⁻¹ s⁻¹ | Km [11]: 2980 µM | kcat [11]: 0.2 s⁻¹ | kcat/Km [11]: 500 M⁻¹ s⁻¹ | Km [12]: 10 µM | kcat [12]: 100 s⁻¹ | kcat/Km [12]: 1e+07 M⁻¹ s⁻¹ | Km [13]: 1750 µM | kcat [13]: 1 s⁻¹ | kcat/Km [13]: 600 M⁻¹ s⁻¹ | Km [14]: 51 µM | kcat [14]: 286 s⁻¹ | kcat/Km [14]: 5.6e+06 M⁻¹ s⁻¹ | Km [15]: 2680 µM | kcat [15]: 77 s⁻¹ | kcat/Km [15]: 29000 M⁻¹ s⁻¹
